According to patent publication US9796700B2 (Celgene CAR LLC, priority 2013, dated 2017):

Molecular target: Erk1 (Homo sapiens (Human), UniProt P27361)
Assay: Protein Mass Modification Assay (intact protein MALDI)
Format: binding
Method: Protein Mass Modification Assay
Intact protein: Erk1 from Millipore (Cat. No. 14-439) was incubated for 60 min. at room temperature with a 10-fold excess of test compound to protein. 4 μL aliquots of the resulting mixture were diluted with 15 μL of 0.2% TFA prior to micro C4 ZipTipping directly onto the MALDI target using sinapinic acid as the desorption matrix (10 mg/ml in 0.1% TFA:Acetonitrile 50:50, v/v). The centroid mass of the target protein in the control sample was compared with the centroid mass of the target protein incubated with compound. A shift in the centroid mass of the treated protein compared to the untreated protein was divided by the molecular weight of the compound. This number corresponds to the percentage of modified protein after one hour incubation. Results from this assay are reported in Table A under the column “ERK1 Mass Mod (%).”

Erk1, sequence (P27361 whole entry, looked up): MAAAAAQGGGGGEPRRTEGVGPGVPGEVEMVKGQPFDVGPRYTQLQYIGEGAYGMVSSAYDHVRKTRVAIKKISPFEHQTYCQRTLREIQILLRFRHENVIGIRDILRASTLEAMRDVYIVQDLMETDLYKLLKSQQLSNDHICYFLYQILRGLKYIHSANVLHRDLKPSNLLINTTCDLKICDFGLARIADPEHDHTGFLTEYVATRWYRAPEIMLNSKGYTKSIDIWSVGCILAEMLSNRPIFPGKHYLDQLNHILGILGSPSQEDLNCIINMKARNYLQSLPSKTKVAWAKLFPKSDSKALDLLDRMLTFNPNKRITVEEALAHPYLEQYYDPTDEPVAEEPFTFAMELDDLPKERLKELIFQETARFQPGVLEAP

Row | ERK1 Mass Mod (%) | SMILES
1 | E (provided a mass modification of ≧70%) | C=CC(=O)Nc1ccccc1Nc1nc(Nc2cc(C(N)=O)ccn2)ncc1C(F)(F)F [Compound I-83, 2-((4-((2-Acrylamidophenyl)amino)-5-(trifluoromethyl)pyrimidin-2-yl)amino)isonicotinamide]
2 | G (proived a mass modification ≦30%) | C=C(C)S(=O)(=O)Nc1ccccc1Nc1nc(Nc2cc(C(C)=O)ccc2C)ncc1C(F)(F)F [Compound I-97, N-(2-((2-((5-acetyl-2-methylphenyl)amino)-5-(trifluoromethyl)pyrimidin-4-yl)amino)phenyl)prop-1-ene-2-sulfonamide]
3 | G (proived a mass modification ≦30%) | C=C(C)S(=O)(=O)Nc1cc(F)ccc1Nc1nc(Nc2cc(C(C)=O)ccc2C)ncc1C(F)(F)F [Compound I-99, N-(2-((2-((5-acetyl-2-methylphenyl)amino)-5-(trifluoromethyl)pyrimidin-4-yl)amino)-5-fluorophenyl)prop-1-ene-2-sulfonamide]
4 | E (provided a mass modification of ≧70%) | C=CC(=O)Nc1ccccc1Nc1nc(NC2CCCCC2)ncc1Cl [Compound I-107, N-(2-((5-chloro-2-(cyclohexylamino)pyrimidin-4-yl)amino)phenyl) acrylamide]
5 | E (provided a mass modification of ≧70%) | C=CC(=O)Nc1ccccc1Nc1nc(N[C@H]2CCCN(C(C)=O)C2)ncc1Cl [Compound I-115, (S)—N-(2-((2-((1-acetylpiperidin-3-yl)amino)-5-chloropyrimidin-4-yl)amino)phenyl) acrylamide]
6 | E (provided a mass modification of ≧70%) | C=CC(=O)Nc1ccccc1Nc1nc(NC2CCN(C(C)=O)CC2)ncc1Cl [Compound I-116, N-(2-((2-((1-acetylpiperidin-4-yl)amino)-5-chloropyrimidin-4-yl)amino)phenyl) acrylamide]
7 | E (provided a mass modification of ≧70%) | C=CC(=O)Nc1ccccc1Nc1nc(NC2CCN(S(C)(=O)=O)CC2)ncc1Cl [Compound I-117, N-(2-((5-chloro-2-((1-(methylsulfonyl)piperidin-4-yl)amino)pyrimidin-4-yl)amino)phenyl)acrylamide]
8 | E (provided a mass modification of ≧70%) | C=CC(=O)Nc1ccccc1Nc1nc(N[C@H]2CCCN(C=O)C2)ncc1Cl [Compound I-122, (S)—N-(2-((5-chloro-2-((1-formylpiperidin-3-yl)amino)pyrimidin-4-yl)amino)phenyl)acrylamide]
9 | E (provided a mass modification of ≧70%) | C=CC(=O)Nc1ccccc1Nc1nc(N[C@H]2CCCNC2)ncc1Cl [Compound I-126, (S)—N-(2-((5-chloro-2-(piperidin-3-ylamino)pyrimidin-4-yl)amino)phenyl) acrylamide]
10 | E (provided a mass modification of ≧70%) | C=CC(=O)Nc1ccccc1Nc1nc(NC2CCC(F)(F)CC2)ncc1Cl [Compound I-127, N-(2-((5-chloro-2-((4,4-difluorocyclohexyl)amino)pyrimidin-4-yl)amino)phenyl) acrylamide]
11 | E (provided a mass modification of ≧70%) | C=CC(=O)Nc1ccccc1Nc1nc(N[C@@H]2CCCN(C(C)=O)C2)ncc1Cl [Compound I-128, (R)—N-(2-((2-((1-acetylpiperidin-3-yl)amino)-5-chloropyrimidin-4-yl)amino)phenyl) acrylamide]
12 | E (provided a mass modification of ≧70%) | C=CC(=O)Nc1ccccc1Nc1nc(N[C@H]2CC[C@H](C(N)=O)CC2)ncc1Cl [Compound I-129, trans-4-((4-((2-acrylamidophenyl)amino)-5-chloropyrimidin-2-yl)amino)-cyclohexanecarboxamide]
13 | E (provided a mass modification of ≧70%) | C=CC(=O)Nc1ccccc1Nc1nc(N[C@H]2CCCN(C(=O)C(C)(C)O)C2)ncc1Cl [Compound I-135, (S)—N-(2-((5-chloro-2-((1-(2-hydroxy-2-methylpropanoyl)piperidin-3-yl)amino)pyrimidin-4-yl)amino)phenyl)acrylamide]
14 | E (provided a mass modification of ≧70%) | C=CC(=O)Nc1ccccc1Nc1nc(N[C@H]2CCCN(C(=O)[C@H](C)O)C2)ncc1Cl [Compound I-138, N-(2-((5-chloro-2-(((S)-1-((S)-2-hydroxypropanoyl)piperidin-3-yl)amino)pyrimidin-4-yl)amino)phenyl)acrylamide]
15 | E (provided a mass modification of ≧70%) | C=CC(=O)Nc1ccccc1Nc1nc(Nc2ccc(N3CCNCC3)cc2OC(F)F)ncc1Cl [Compound I-142, N-(2-((5-chloro-2-((2-(difluoromethoxy)-4-(piperazin-1-yl)phenyl)amino)pyrimidin-4-yl)amino)phenyl)acrylamide]
16 | E (provided a mass modification of ≧70%) | C=CC(=O)Nc1ccccc1Nc1nc(Nc2ccc3c(c2OC)CCCC(=O)N3CCN2CCOCC2)ncc1Cl [Compound I-145, N-(2-((5-chloro-2-((6-methoxy-1-(2-morpholinoethyl)-2-oxo-2,3,4,5-tetrahydro-1H-benzo[b]azepin-7-yl)amino)pyrimidin-4-yl)amino)phenyl)acrylamide]
17 | E (provided a mass modification of ≧70%) | C=CC(=O)Nc1ccccc1Nc1nc(Nc2ccc3c(c2OC)CCCC(=O)N3CCCN2CCOCC2)ncc1Cl [Compound I-146, N-(2-((5-chloro-2-((6-methoxy-1-(3-morpholinopropyl)-2-oxo-2,3,4,5-tetrahydro-1H-benzo[b]azepin-7-yl)amino)pyrimidin-4-yl)amino)phenyl)acrylamide]
18 | E (provided a mass modification of ≧70%) | C=CC(=O)Nc1ccccc1Nc1nc(Nc2ccc3c(c2OC)CCCC(=O)N3CCCNC(=O)OC(C)(C)C)ncc1Cl [Compound I-147, tert-butyl (3-(7-((4-((2-acrylamidophenyl)amino)-5-chloropyrimidin-2-yl)amino)-6-methoxy-2-oxo-2,3,4,5-tetrahydro-1H-benzo[b]azepin-1-yl)propyl)carbamate]
19 | E (provided a mass modification of ≧70%) | C=CC(=O)Nc1ccccc1Nc1nc(Nc2ccc3c(c2OC)CCCC(=O)N3CCCN)ncc1Cl [Compound I-148, N-(2-((2-((1-(3-aminopropyl)-6-methoxy-2-oxo-2,3,4,5-tetrahydro-1H-benzo[b]azepin-7-yl)amino)-5-chloropyrimidin-4-yl)amino)phenyl)acrylamide]
20 | E (provided a mass modification of ≧70%) | C=CC(=O)Nc1ccccc1Nc1nc(Nc2ccc(N(CC)C(C)=O)cc2OC)ncc1Cl [Compound I-155, N-(2-((5-chloro-2-((4-(N-ethylacetamido)-2-methoxyphenyl)amino)pyrimidin-4-yl)amino)phenyl)acrylamide]
21 | E (provided a mass modification of ≧70%) | C=CC(=O)Nc1cc(OC)ccc1Nc1nc(Nc2ccc(N3CCCN(C(=O)OC(C)(C)C)CC3)cc2C#N)ncc1Cl [Compound I-156, tert-butyl 4-(4-((4-((2-acrylamido-4-methoxyphenyl)amino)-5-chloropyrimidin-2-yl)amino)-3-cyanophenyl)-1,4-diazepane-1-carboxylate]
22 | E (provided a mass modification of ≧70%) | C=CC(=O)Nc1cc(OC)ccc1Nc1nc(Nc2ccc(N3CCC[C@H]3CO)cc2C#N)ncc1Cl [Compound I-163, (S)—N-(2-((5-chloro-2-((2-cyano-4-(2-(hydroxymethyl)pyrrolidin-1-yl)phenyl)amino)pyrimidin-4-yl)amino)-5-methoxyphenyl)acrylamide]
23 | E (provided a mass modification of ≧70%) | C=CC(=O)Nc1cc(OC)ccc1Nc1nc(Nc2ccc(N(CC)C(C)=O)cc2C#N)ncc1Cl [Compound I-164, N-(2-((5-chloro-2-((2-cyano-4-(N-ethylacetamido)phenyl)amino)pyrimidin-4-yl)amino)-5-methoxyphenyl)acrylamide]

Row | SMILES | ERK1 Mass Mod (%)
24 | C=CC(=O)Nc1cc(C)ccc1Nc1nc(Nc2cc(OC)nc(N3CCN(CC)CC3)c2)ncc1C(F)(F)F [Compound I-89, N-(2-((2-((2-(4-Ethylpiperazin-1-yl)-6-methoxypyridin-4-yl)amino)-5-(trifluoromethyl)pyrimidin-4-yl)amino)-5-methylphenyl)acrylamide] | F (provided a mass modification of 31-69%)
25 | C=CC(=O)Nc1cc(C)ccc1Nc1nc(Nc2cc(OC)nc(N3CCN(C(C)=O)CC3)c2)ncc1C(F)(F)F [Compound I-93, N-(2-((2-((2-(4-Acetylpiperazin-1-yl)-6-methoxypyridin-4-yl)amino)-5-(trifluoromethyl)pyrimidin-4-yl)amino)-5-methylphenyl)acrylamide] | E (key: E: provided a mass modification of ≧70%; F: provided a mass modification of 31-69%; G: proived a mass modification ≦30%)
26 | C=CC(=O)Nc1cc(C)ccc1Nc1nc(Nc2cc(OC)nc(N3CCOCC3)c2)ncc1C(F)(F)F [Compound I-94, N-(2-((2-((2-Methoxy-6-morpholinopyridin-4-yl)amino)-5-(trifluoromethyl)pyrimidin-4-yl)amino)-5-methylphenyl)acrylamide] | F (provided a mass modification of 31-69%)
27 | C=CC(=O)Nc1ccccc1Nc1nc(Nc2ccc(N3CCOCC3)cc2OC)ncc1C#N [Compound I-143, N-(2-((5-cyano-2-((2-methoxy-4-morpholinophenyl)amino)pyrimidin-4-yl)amino)phenyl)acrylamide] | F (provided a mass modification of 31-69%)
28 | C=CC(=O)Nc1ccccc1Nc1nc(Nc2ccc(N3CCOCC3)cc2OC)ncc1N [Compound I-144, N-(2-((5-amino-2-((2-methoxy-4-morpholinophenyl)amino)pyrimidin-4-yl)amino)phenyl) acrylamide] | F (provided a mass modification of 31-69%)
